Source: patent US8124834B2, “Use of active cytokinin synthase gene” (Riken, priority 2006, dated 2012)

Legend:
[1] = biological target: T1, LOG protein (Oryza sativa subsp. japonica, UniProt Q5ZC82); conditions: 3 μg LOG protein, 5 mM L-lysine, pH 6.0, 40° C., 60 minutes, HPLC absorption at 226 nm
T1 sequence (Q5ZC82 1-242): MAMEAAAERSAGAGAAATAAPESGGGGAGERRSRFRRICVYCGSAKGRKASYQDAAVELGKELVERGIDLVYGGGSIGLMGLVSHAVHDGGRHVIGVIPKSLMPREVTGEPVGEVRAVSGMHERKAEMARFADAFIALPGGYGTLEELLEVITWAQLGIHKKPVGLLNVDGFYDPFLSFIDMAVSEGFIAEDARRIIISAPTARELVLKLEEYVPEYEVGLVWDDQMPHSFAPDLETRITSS
Description: As a column, Symmetry C18, 3.5 μm, 2.1×100 mm cartridge (Waters) was used.

[2] = biological target: T1, LOG protein; test: Substrate specificity of LOG protein to nucleotide cytokinin forms and AMP; assay type: biochemical; set-up: the protein coding region of the LOG gene cDNA was inserted into pCOLD-I (TaKaRa), a His-tag protein expression vector; made in house; host or cells: E. coli BL21(DE3)[pG-Tf2]; conditions: 0.02 μg LOG protein, 100 μM substrate, pH 6.5, 4 minutes (iPRDP, iPRTP: 0.01 μg, 2 minutes)
Procedure: The reaction specificity of the LOG protein to a nucleotide cytokinin form was analyzed. […] The following 7 types of substrates were used: iPRMP, tZRMP, dihydrozeatin riboside 5′-monophosphate (DZRMP), cZR 5′-monophosphate (cZRMP), iPR 5′-diphosphate (iPRDP), iPR 5′-triphosphate (iPRTP), and AMP. The reaction conditions are as follows. 0.02 μg of the LOG protein was used for a single reaction, and it was reacted with a 100 μM substrate in 200 μl of a reaction solution containing 50 mM Tris-HCl, 1 mM MgCl2, 1 mM DTT, pH 6.5. Thereafter, 0 minute and 4 minutes after initiation of the reaction, 600 μl of cold acetone was added to the reaction solution to terminate the reaction. The reaction solution was left at rest at −80° C. for 30 minutes, and it was then centrifuged at 15,000 rpm for 20 minutes. Thereafter, a supernatant was dried using a centrifugal thickener. […] Only the injection amount was changed to 50 μl. In the case of iPRDP and iPRTP, the amount of a reaction solution was determined to be 100 μl, the mass of a protein used was determined to be 0.01 μg, and the reaction time was determined to be 2 minutes.

[3] = test system: AtLOG 1, 2, 3, 4, 5, 7 and 8 proteins; test: Confirmation of LOG enzyme activity of Arabidopsis thaliana LOG homolog proteins (substrate specificity); assay type: biochemical; conditions: purified AtLOG 1, 2, 3, 4, 5, 7 and 8 proteins, result stated for all together
Procedure: (§1) 3 μg of the recombinant LOG protein obtained in Example 1 was allowed to react with various types of cytokinins used as substrates. The following 8 types of cytokinin substrates were used: N^6-(delta-2-isopentenyl)adenine (iP), trans-zeatin (tZ), cis-zeatin (cZ), iP riboside (iPR), tZ riboside (tZR), cZ riboside (cZR), iPR 5′-monophosphate (iPRMP), and tZR 5′-monophosphate (tZRMP). As reaction conditions, 100 μl of a reaction solution containing 50 mM Tris-HCl, 1 mM MgCl2, and a 50 μM substrate, pH7 was incubated at 30° C. for 2 hours. Thereafter, 10 μl of 20% acetic acid was added to the reaction solution to terminate the reaction, and the reaction solution was then centrifuged at 15,000 rpm at a room temperature for 20 minutes. Thereafter, 20 μl of a supernatant was analyzed by liquid chromatography using HPLC (Waters Alliance 2695/PDA detector 2996). As a column, Symmetry C18, 3.5 μm, 2.1×100 mm cartridge (Waters) was used. For elution, solvent C (100% acetonitrile) and solvent D (2% acetic acid) were used.
The reaction specificity of the LOG protein to a nucleotide cytokinin form was analyzed. At the same time, the presence or absence of the reactivity of the LOG protein to AMP was also analyzed. […] The resultant was dissolved in 100 μl of 2% acetic acid, and the reaction product was then detected and quantified under the same conditions as those for the liquid chromatography of Example 2. […] In the case of iPRDP and iPRTP, the amount of a reaction solution was determined to be 100 μl, the mass of a protein used was determined to be 0.01 μg, and the reaction time was determined to be 2 minutes.
(§2) The enzyme activity of each of the purified AtLOG proteins was evaluated under the same reaction conditions as those of Example 2. […] In addition, the enzyme property of each AtLOG protein to iPRMP was determined in the same manner as in Example 5 (Table 4). In Table 4, the Km, Vmax and Kcat values were calculated based on a reaction under the optimal pH condition of each AtLOG protein.

[4] = biological target: T1, LOG protein; test: Measurement of Km value of LOG protein to iPRMP and tZRMP; assay type: biochemical; set-up: the protein coding region of the LOG gene cDNA was inserted into pCOLD-I (TaKaRa), a His-tag protein expression vector; made in house; host or cells: E. coli BL21(DE3)[pG-Tf2]; conditions: 0.02 μg LOG protein; for specific activity of the LOG protein: substrate 5-100 μM, pH 6.5
Procedure: (§3) In order to obtain the Km value of the LOG protein to typical substrates iPRMP and tZRMP, the following experiment was carried out. 0.02 μg of LOG protein was used for a single reaction, and it was reacted with a substrate in a substrate concentration of each of 5, 8, 15, 30 and 100 μM in 200 μl of a reaction solution containing 50 mM Tris-HCl, 1 mM MgCl2, 1 mM DTT, pH 6.5. Thereafter, 0 minute, 2 minutes and 4 minutes after initiation of the reaction, 600 μl of cold acetone was added to the reaction solution to terminate the reaction. The reaction solution was left at rest at −80° C. for 30 minutes, and it was then centrifuged at 15,000 rpm for 20 minutes. Thereafter, a supernatant was dried using a centrifugal thickener. The resultant was dissolved in 100 μl of 2% acetic acid, and a reaction product was then detected and quantified under the same conditions as those for the liquid chromatography of Example 2. Only the injection amount was changed to 50 μl. The aforementioned experiment was carried out three times, and the Km value was calculated.

[5] = biological target: T1, LOG protein; test: Detection of enzyme activity of recombinant LOG protein with cytokinin substrates (HPLC); assay type: biochemical; set-up: the protein coding region of the LOG gene cDNA was inserted into pCOLD-I (TaKaRa), a His-tag protein expression vector; made in house; host or cells: E. coli BL21(DE3)[pG-Tf2]; conditions: 3 μg LOG protein, 50 μM substrate, pH7, 30° C., 2 hours, HPLC absorption at 270 nm
Procedure: as §1, with “The” for “3 μg of the recombinant LOG protein obtained in Example 1 was allowed to react with various types of cytokinins used as substrates. The”, “Thereafter, 20 μl of a supernatant was analyzed by liquid chromatography using HPLC (Waters Alliance 2695/PDA detector 2996). As a column, Symmetry C18, 3.5 μm, 2.1×100 mm cartridge (Waters) was used.” left out

[6] = Enzyme properties of AtLOG 1, 2, 3, 4, 5, 7 and 8 proteins having iPRMP as substrate; assay type: biochemical, Arabidopsis thaliana
Procedure: as §3, §2

Molecule | reactivity of LOG protein to the substrate (substrate specificity) [2] | reactivity of AtLOG proteins to the substrate (substrate specificity) [3] | Optimal pH [6] | also measured
NCCCC[C@H](N)C(=O)O [lysine, L-lysine] | – | – | – | reactivity of LOG protein to lysine [1]: did not exhibit reactivity
CC(C)=CCNc1ncnc2c1ncn2[C@@H]1O[C@H](COP(=O)(O)OP(=O)(O)O)[C@@H](O)[C@H]1O [iPRDP, iPR 5′-diphosphate] | no reactivity | almost no reactivity | – | –
C/C(=C\CNc1ncnc2c1ncn2[C@@H]1O[C@H](COP(=O)(O)O)[C@@H](O)[C@H]1O)CO (relative stereo) [tZRMP, trans-zeatin riboside 5′-monophosphate] | uses as a substrate | – | – | Km ([4]; substrate 5, 8, 15, 30 and 100 μM, pH 6.5, experiment carried out three times): 22 ± 3.6 µM; specific activity of the LOG protein [4]: 4.2 μmol/min^−1/mg^−1 protein; reactivity of the substrate with recombinant LOG protein (conversion to base form) [5]: completely converted
CC(C)=CCNc1ncnc2c1ncn2[C@@H]1O[C@H](COP(=O)(O)OP(=O)(O)OP(=O)(O)O)[C@@H](O)[C@H]1O [iPRTP, iPR 5′-triphosphate] | no reactivity | almost no reactivity | – | –
CC(C)=CCNc1ncnc2c1ncn2[C@@H]1O[C@H](COP(=O)(O)O)[C@@H](O)[C@H]1O [iPRMP, isopentenyladenine riboside 5′-monophosphate] | uses as a substrate | – | – | specific activity of the LOG protein [4]: 5.6 μmol/min^−1/mg^−1 protein; reactivity of the substrate with recombinant LOG protein (conversion to base form) [5]: completely converted
Nc1ncnc2c1ncn2[C@@H]1O[C@H](COP(=O)(O)O)[C@@H](O)[C@H]1O [AMP] | no reactivity | almost no reactivity | – | –
AtLOG8: Arabidopsis thaliana LOG homolog protein, gene At5g11950, amino acid sequence SEQ ID NO: 16, purified from E. coli (protein, listed as Arabidopsis sp.) MEDNQRSRFRKICVFCGSHSGHREVFSDAAIELGNELVKRKIDLVYGGGSVGLMGLISRRVYEGGLHVLGIIPKALMPIEISGETVGDVRVVADMHERKAAMAQEAEAFIALPGGYGTMEELLEMITWSQLGIHKKTVGLLNVDGYYNNLLALFDTGVEEGFIKPGARNIVVSAPTAKELMEKMEEYTPSHMHVASHESWKVEELGDYPGQENKPQ | – | – | 7.0 pH | –
AtLOG1: Arabidopsis thaliana LOG homolog protein, gene At2g28305, amino acid sequence SEQ ID NO: 4, purified from E. coli (protein, listed as Arabidopsis sp.) MEIESKFKRICVFCGSSAGNKVSYKDAAIELGTELVSRNIDLVYGGGSIGLMGLISQAVFNGGRHVIGVIPKTLMPREITGETVGEVKAVADMHQRKAEMAKHSDAFIALPGGYGTLEELLEVITWAQLGIHDKPVGLLNVEGYYNSLLSFIDKAVEEGFISPTARHIIVSAPSAKELVKKLEDYVPRHEKVASKKSWEMEQIGLSPTCEISR | – | – | 6.5 pH | –
AtLOG2: Arabidopsis thaliana LOG homolog protein, gene At2g35990, amino acid sequence SEQ ID NO: 6, purified from E. coli (protein, listed as Arabidopsis sp.) MEETKSRFRRICVFCGSSSGNKTTYHDAALQLAHQLVERNIDLVYGGGSVGLMGLISQAVHDGGRHVLGIIPKSLAPREITGESIGEVITVSTMHQRKAEMGRQADAFIALPGGYGTFEELLEVITWSQLGIHTKPVGLLNVDGFYDSLLTFIDKAVDEGFVSSTARRIIVSAPNAPQLLQLLEEYVPKHDDFVSKMVWDNTTDAFTLEGDSF | – | – | 6.5 pH | –
